PMC8911752, “The Synthesis and Initial Evaluation of MerTK Targeted PET Agents” (Molecules, 2022)

Experiments:
MerTK = target: T1, MerTK (Homo sapiens, UniProt Q12866); test: Microcapillary electrophoresis (MCE) kinase assay, MerTK; assay type: biochemical; settings: for IC50: MCE assay, ATP at Km, mean of two or more independent assays; for selectivity over Axl, Tyro3 and Flt3: MerTK versus Axl, Tyro3, Flt3 in MCE assays
T1 sequence (Q12866 21-999): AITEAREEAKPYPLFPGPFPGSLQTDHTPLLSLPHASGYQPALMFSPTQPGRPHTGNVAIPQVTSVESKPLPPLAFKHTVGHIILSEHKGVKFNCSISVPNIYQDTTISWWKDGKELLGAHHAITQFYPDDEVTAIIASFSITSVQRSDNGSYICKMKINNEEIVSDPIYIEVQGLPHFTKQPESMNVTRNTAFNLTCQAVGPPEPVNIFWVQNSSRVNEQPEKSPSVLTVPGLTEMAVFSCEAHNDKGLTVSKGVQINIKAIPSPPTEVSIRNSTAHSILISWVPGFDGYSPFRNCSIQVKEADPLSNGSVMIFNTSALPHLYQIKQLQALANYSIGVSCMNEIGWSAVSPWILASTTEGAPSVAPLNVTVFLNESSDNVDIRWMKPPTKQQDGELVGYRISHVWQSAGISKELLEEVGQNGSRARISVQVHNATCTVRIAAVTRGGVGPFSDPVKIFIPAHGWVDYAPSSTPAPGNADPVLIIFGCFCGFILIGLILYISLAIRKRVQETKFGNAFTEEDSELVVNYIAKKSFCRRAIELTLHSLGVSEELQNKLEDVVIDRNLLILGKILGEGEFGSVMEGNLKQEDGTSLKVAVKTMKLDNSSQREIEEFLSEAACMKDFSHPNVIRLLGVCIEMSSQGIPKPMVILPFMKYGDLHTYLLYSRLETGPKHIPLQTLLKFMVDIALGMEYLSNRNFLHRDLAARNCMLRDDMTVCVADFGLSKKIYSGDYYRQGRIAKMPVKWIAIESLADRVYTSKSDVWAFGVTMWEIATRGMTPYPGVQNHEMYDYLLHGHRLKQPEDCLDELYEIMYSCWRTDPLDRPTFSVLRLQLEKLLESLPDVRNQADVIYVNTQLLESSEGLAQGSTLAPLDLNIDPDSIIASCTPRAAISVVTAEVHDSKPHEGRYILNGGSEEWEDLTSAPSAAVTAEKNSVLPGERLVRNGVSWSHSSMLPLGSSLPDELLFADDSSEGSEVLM
Method: The inhibitory activities of standards towards MerTK, Axl, Tyro3 and Flt3 were determined in our in-house microcapillary electrophoresis (MCE) assays.
Microcapillary Electrophoresis (MCE) Assays were performed with literature method. […] All reactions were terminated by addition of 20 µL of 70 mM EDTA. After an 180 min incubation, phosphorylated and unphosphorylated substrate peptides (Table 2) were separated in buffer supplemented with 1 x CR-8 on a LabChip EZ Reader equipped with a 12-sipper chip. Data were analyzed using EZ Reader software.

[1] = tested on: B16F10 tumor-bearing mice; test: PET imaging in B16F10 tumor-bearing mice; assay type: in vivo; settings: 68Ga-labeled, initial pilot study in mice
[2] = tested on: B16F10 tumor-bearing mice; test: PET imaging in B16F10 tumor-bearing mice; assay type: in vivo; settings: initial PET study, 18F-labeled agents
Method: Evaluation of the PET agent [^18F]-MerTK-6 was performed on B16F10 tumor-bearing mice. At 30 min post-injection (p.i), the uptake in tumor, liver, kidney, and muscle was 4.65 ± 1.25, 14.79 ± 0.99, 10.42 ± 1.01, and 2.51 ± 0.48%ID/g, respectively. The uptake at 2 h p.i. was 4.79 ± 0.24, 9.72 ± 1.56, 5.34 ± 1.25, and 1.55 ± 0.23%ID/g, respectively. Overall, the tumor uptake was maintained at ~5%ID/g and the tumor to muscle contrast increased to 3.09 at 2 h p.i, compared with 1.86 at 0.5 h p.i.
All animal studies were reviewed and approved by The University of North Carolina at Chapel Hill Institutional Animal Care and Use Committee. The B16F10 tumor cell was obtained from the LCCC tissue culture facility (the University of North Carolina at Chapel Hill, Chapel Hill, NC, USA). The B16F10 tumor-bearing […] mouse model was prepared as described previously. Briefly, B16/F10 cells were subcutaneously injected on the right flank of C57BL/6 female mice (Jackson Laboratory). The tumor volume was measured daily. When the tumor size reached 100 mm^3, the mice were used for PET imaging studies.
B16F10 tumor-bearing mice (n = 3/group) were intravenously injected via the tail vein with tracers. At 30 min and 120 min post-injection, a 10-min static emission scan was acquired with a SuperArgus small-animal PET/CT scanner. The regions of interests (ROIs) were drawn over the tumor and other organs and calculated as %ID/g. The mean uptake and standard deviation were calculated.

## C[C@H](Nc1ncc2c(C3CCN(C)CC3)cn([C@H]3CC[C@H](O)CC3)c2n1)c1ccccc1 [MerTK-2]
MerTK
  IC50: 61 nM
  selectivity over Axl, Tyro3 and Flt3: Good selectivity

## C[C@H](Nc1ncc2c(C3CCN(C(=S)Nc4ccc(CC5CN(CC(=O)O)CCN(CC(=O)O)CCN5CC(=O)O)cc4)CC3)cn([C@H]3CC[C@H](O)CC3)c2n1)c1ccccc1 (stereo partly drawn) [MerTK-4]
[1]
  tumor uptakes: < 1 %ID/g
MerTK
  IC50: 13 nM

## CCC[C@H](C)Nc1ncc2c(C3CCN(CCF)CC3)cn([C@H]3CC[C@H](O)CC3)c2n1 [MerTK-5]
MerTK
  IC50: 15 nM
  selectivity over Axl, Tyro3 and Flt3: good selectivity

## C[C@H](Nc1ncc2c(C3CCN(CCF)CC3)cn([C@H]3CC[C@H](O)CC3)c2n1)c1ccccc1 [MerTK-6]
[2]
  tumor uptake and contrast compared with MerTK-5: more prominent tumor uptake and contrast
MerTK
  IC50: 37 nM
  selectivity over Axl, Tyro3 and Flt3: good selectivity
